{
  "source": "patent US10633386B2",
  "about": "“BET protein degraders” (THE REGENTS OF THE UNIVERSITY OF MICHIGAN, priority 2016, dated 2020)",
  "system": "MDA-MB-231 xenograft",
  "assay": "Efficacy of Cpd. No. 9 in MDA-MB-231 xenograft model",
  "assay_type": "in vivo, SCID mice",
  "details": "MDA-MB-231 xenograft model in mice, i.v. (FIG. 7)",
  "description": "Cpd. No. 9 was dissolved in 10% PCP [10% PEG400 (Sigma)+3% Cremophor (Sigma)+87% PBS (Gibco)]. The pH of the drug solutions were checked before use and adjusted with 0.5N NaOH to be between pH 6.5 and 8.0 for IV (intravenous) administration.\nHuman breast tumor cells, MDA-MB-231 (ATCC®) were maintained at 37° C., 95% air, 5% carbon dioxide in Improved MEM (Richter's Mod.) supplemented with 10% Fetal Bovine Serum, 100 units/ml of penicillin and […] (GIBCO™, Invitrogen Corp.) and passaged twice weekly.\nTumor cells for xenografts were harvested with Trypsin (0.05%)-EDTA (0.53 mM) (GIBCO™, Invitrogen Corp.), growth medium added and cells placed on ice. Cells were washed once with 1×PBS (GIBCO™, Invitrogen Corp.) and re-suspended in PBS. After washing in PBS, cells were re-suspended in an ice cold mixture of 1:1 PBS and Matrigel (BD Biosciences, Invitrogen Corp.) for a final Matrigel protein concentration of 5 mg/ml. Cells at 5×10^6 cells in 0.1 ml were injected subcutaneously (s.c.) into the flank region of each mouse using a 25 gauge needle. […]\nThe size of tumors growing in the mice was measured in two dimensions using calipers. […] During treatment, tumor volume and body weight were measured three times a week. After the treatment was stopped, tumor volume and body weight was measured at least once a week. […]",
  "data": [
    {"smiles": "CCn1nc(C2CC2)cc1Nc1nc(C(=O)NCCCCNc2cccc3c2C(=O)N(C2CCC(=O)NC2=O)C3=O)nc2[nH]c3cc(-c4c(C)noc4C)c(OC)cc3c12", "note": "(stereo not shown) [Cpd. No. 9]", "values": [
      {"measurement": "tumor growth", "result": "reduces tumor growth"}
    ]}
  ]
}
